For one assay, the target named is human LPA1 receptor (Homo sapiens (Human), UniProt Q92633). Nature of the assay: Beta-arrestin recruitment assay to determine IC50 values for human LPAR1. Format: cell-based. Conditions: antagonist mode, Tango EDG2-bla U2OS cells, LPA 18:1 500 nM final. The method in brief: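 Antagonist IC50 = concentration giving 50% inhibition of maximal LPA response. Read-out is beta-lactamase reporter activity after arrestin-protease recruitment in U2OS cells bearing LPA1-TEV-Gal4-VP16 construct; cells pre-incubated 20 h, 37 °C, 5% CO2.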
human LPA1 receptor, sequence (Q92633 whole entry, the tested form may be a part): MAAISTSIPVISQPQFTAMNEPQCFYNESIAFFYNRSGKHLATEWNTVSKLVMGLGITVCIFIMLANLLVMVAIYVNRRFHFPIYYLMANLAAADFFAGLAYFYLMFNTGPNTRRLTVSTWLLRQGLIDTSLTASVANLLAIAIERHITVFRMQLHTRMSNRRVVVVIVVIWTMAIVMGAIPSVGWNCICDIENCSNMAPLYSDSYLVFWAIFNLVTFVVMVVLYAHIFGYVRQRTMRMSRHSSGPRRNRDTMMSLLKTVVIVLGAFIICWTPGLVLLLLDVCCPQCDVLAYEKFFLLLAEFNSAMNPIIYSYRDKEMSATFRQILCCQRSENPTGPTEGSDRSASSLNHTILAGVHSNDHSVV

Assay [1] has as its system LPA-induced skin vascular leakage. Kind of assay: mouse LPA-induced skin vascular leakage model. Format: in vivo. The note with it: mice, oral administration of 100 mg/kg, LPA-induced vascular leakage (Evans blue). The method, then:
Assessment of In Vivo Potency
The in vivo potency of the compounds of formulae (I), (II) and (III) can be determined using a mouse LPA-induced skin vascular leakage model. Female Balb/c mice are treated with either vehicle or test compound (p.o.) for at least 1 h prior to administration of the albumin marker Evans blue (50 mg/kg, i.v., 0.9% NaCl) and subsequent challenge with LPA (5 μg, i.d.). After 30 minutes, mice are sacrificed by CO2 inhalation. Discs of skin from the injection sites are removed, digested in formamide (500 μl, 37° C., 24 hrs) and the content of Evans blue quantified by colorimetric assay. Results are expressed as extravasated Evans blue per skin disc (μg/disc).
As an example, the compound of Ex 12-21 is able to effectively reduce LPA-induced vascular leakage after oral administration of 100 mg/kg to mice as compared to a group of animals treated with vehicle only. Reduction of vascular leakage compared to vehicle group was ≥60%.

pIC50: −log10 of the molar value.

For `Cc1ccc(NC(=O)C2(c3ccccc3C(C)C)CN(C(=O)Cn3nccn3)C2)c(OC(F)F)n1` [Ex 12-21, 1-(2-(2H-1,2,3-triazol-2-yl)acetyl)-N-(2-(difluoromethoxy)-6-methylpyridin-3-yl)-3-(2-isopropylphenyl)azetidine-3-carboxamide], at human LPA1 receptor, the pIC50 (commonly −log10 of the IC50, conventionally taken in molar units) was 8.25. The “Reduction of vascular leakage compared to vehicle group” value in assay [1] is at least 60%. Turning to “N-(2-(difluoromethoxy)-6-methylpyridin-3-yl)-1-(2-(1-(2-hydroxyethyl)piperidin-4-yl)acetyl)-3-(2-isopropylphenyl)azetidine-3-carboxamide [Ex 12-140]”, on human LPA1 receptor, the pIC50 was 6.91.

“N-(2-(difluoromethoxy)-6-methylpyridin-3-yl)-1-(3-(N-hydroxyacetamido)propanoyl)-3-(2-isopropylphenyl)azetidine-3-carboxamide [Ex 12-130]”: the pIC50 against human LPA1 receptor is 7.32. Compared with the last compound, the pIC50 is 0.41 log units higher. Same read-out and setting: with “N-(2-(difluoromethoxy)-6-methylpyridin-3-yl)-1-(3-(hydroxyamino)propanoyl)-3-(2-isopropylphenyl)azetidine-3-carboxamide [Ex 12-133]” the figure was 6.85; with “N-(6-ethoxy-2-methoxypyridin-3-yl)-3-(2-isopropylphenyl)azetidine-3-carboxamide [Ex 9]”, 6.79.

Source of the values: US12344597B2, “Alkoxy-substituted pyridinyl derivatives as LPA1 receptor antagonists and their use in the treatment of fibrosis” (IDORSIA PHARMACEUTICALS LTD, priority 2018, dated 2025).
